Values after ≈ are worked out from the molar mass of the structure shown.
Assays:
Test in all cases: ≥ marks a high value that may be exact or a test limit, other limits are often not marked, values filed in µg/mL are converted to µM
[1] = tested on: Serratia marcescens ATCC 14756
[2] = tested on: Mannheimia haemolytica 82-25
[3] = tested on: Staphylococcus aureus ATCC 29213
[4] = tested on: Enterococcus faecalis ATCC 29212
[5] = tested on: Candida krusei ATCC 6258
[6] = tested on: Escherichia coli ATCC 12795
[7] = tested on: Klebsiella pneumoniae ATCC 10031
[8] = tested on: Pseudomonas aeruginosa ATCC 27312
[9] = tested on: Bacillus subtilis ATCC 6051
[10] = tested on: Cryptococcus neoformans ATCC 208821
[11] = tested on: Escherichia coli ATCC 25922
[12] = tested on: Staphylococcus aureus VRSA1
[13] = tested on: Bacillus megaterium ATCC 13632
[14] = tested on: Candida tropicalis ATCC 750
[15] = tested on: Acinetobacter baumannii ATCC 19606
[16] = tested on: Pseudomonas aeruginosa ATCC 27853
[17] = tested on: Klebsiella pneumoniae ATCC 700603
[18] = tested on: Streptococcus pneumoniae ATCC 700677
[19] = tested on: Staphylococcus aureus ATCC 43300
[20] = tested on: Candida albicans ATCC 90028
[21] = tested on: Enterococcus faecium ATCC 35667
[22] = tested on: Vibrio cholerae O1 Inaba
[23] = tested on: Bacillus cereus ATCC 11778
[24] = tested on: Staphylococcus aureus ATCC 25923
[25] = tested on: Shigella sonnei ATCC 11060
[26] = tested on: Escherichia coli O157:H7
[27] = tested on: Staphylococcus epidermidis ATCC 12228
[28] = tested on: Listeria monocytogenes 10403s
[29] = tested on: Salmonella enterica subsp. enterica serovar Typhimurium ATCC 13311
[30] = tested on: Acinetobacter baumannii
[31] = tested on: Pseudomonas aeruginosa RP73
[32] = tested on: Salmonella enterica subsp. enterica serovar Typhimurium ATCC 14028
[33] = tested on: Staphylococcus aureus WKZ2
[34] = tested on: Escherichia coli ATCC 35218
[35] = tested on: Listeria monocytogenes
[36] = tested on: Salmonella enterica subsp. enterica serovar Enteritidis 706 RIVM
[37] = tested on: Salmonella enterica subsp. enterica serovar Typhimurium ATCC 14028s
[38] = tested on: Salmonella enterica serovar typhimurium MS7953s
[39] = tested on: Aeromonas salmonicida
[40] = tested on: Pseudomonas aeruginosa K799
[41] = tested on: Pseudomonas aeruginosa Z61
[42] = tested on: Staphylococcus epidermidis C621
[43] = tested on: Vibrio anguillarum

C[C@H](N)C(=O)N[C@@H](CC(=O)O)C(=O)N[C@@H](C)C(=O)N[C@@H](CC(=O)O)C(=O)N[C@@H](CC(=O)O)C(=O)N[C@@H](CC(=O)O)C(=O)N[C@@H](CC(=O)O)C(=O)N[C@@H](CC(=O)O)C(=O)N[C@@H](CCCCN)C(=O)O [ADADDDDDK]
MIC [1]: ≥ 1500 µM
MIC [2]: ≥ 230 µM
MIC [3]: 1800 µM (≈ 1760 µg/mL)
MIC [4]: 1800 µM (≈ 1760 µg/mL)
MIC [5]: ≥ 5110 µM
MIC [6]: ≥ 850 µM
MIC [7]: ≥ 900 µM
MIC [8]: ≥ 1500 µM

CC[C@H](C)[C@H](N)C(=O)N[C@@H](Cc1ccccc1)C(=O)N[C@@H](Cc1c[nH]c2ccccc12)C(=O)N[C@@H](CC(C)C)C(=O)N[C@@H](Cc1ccccc1)C(=O)N[C@@H](CCCN=C(N)N)C(=O)NCC(=O)N[C@@H](CCCCN)C(=O)N[C@@H](C)C(=O)N[C@@H](CC(=O)O)C(=O)N[C@H](C(=O)N[C@@H](C)C(=O)N[C@@H](CC(C)C)C(N)=O)C(C)C [IFWLFRGKADVAL]
MIC [9]: ≥ 41.7 µM
MIC [10]: 14.7 µM (≈ 22.6 µg/mL)
MIC [11]: > 167 µM
MIC [12]: ≥ 83.3 µM
MIC [13]: 29.5 µM (≈ 45.2 µg/mL)
MIC [14]: ≥ 83.3 µM
MIC [3]: > 83.3 µM
MIC [15]: > 167 µM
MIC [16]: > 167 µM
MIC [17]: > 167 µM
MIC [18]: ≥ 83.3 µM
MIC [19]: > 83.3 µM
MIC [20]: ≥ 83.3 µM
MIC [21]: ≥ 41.7 µM

CC[C@H](C)[C@H](NC(=O)[C@H](CCCN=C(N)N)NC(=O)[C@H](CCCCN)NC(=O)[C@H](C)NC(=O)[C@@H](NC(=O)[C@@H](N)CCCCN)[C@@H](C)CC)C(=O)N[C@@H](Cc1c[nH]c2ccccc12)C(=O)N[C@@H](CCCCN)C(=O)N[C@H](C(=O)N[C@@H](CC(C)C)C(=O)N[C@@H](CCCN=C(N)N)C(=O)N[C@@H](CCCN=C(N)N)C(=O)N[C@@H](CCCN=C(N)N)C(=O)N[C@@H](CC(C)C)C(=O)N[C@@H](Cc1ccccc1)C(N)=O)[C@@H](C)CC [KIAKRIWKILRRRLF]
MIC [22]: 1.96 µM (≈ 3.91 µg/mL)
MIC [23]: 1.96 µM (≈ 3.91 µg/mL)
MIC [24]: 3.91 µM (≈ 7.81 µg/mL)
MIC [11]: 7.82 µM (≈ 15.6 µg/mL)
MIC [25]: 1.96 µM (≈ 3.91 µg/mL)
MIC [26]: 7.82 µM (≈ 15.6 µg/mL)
MIC [27]: 1.96 µM (≈ 3.91 µg/mL)
MIC [28]: 0.976 µM (≈ 1.95 µg/mL)
MIC [4]: 15.6 µM (≈ 31.2 µg/mL)
MIC [29]: 0.976 µM (≈ 1.95 µg/mL)
MIC [16]: 3.91 µM (≈ 7.81 µg/mL)
MIC [30]: 1.96 µM (≈ 3.91 µg/mL)

CC[C@H](C)[C@H](NC(=O)[C@@H]1CCCN1)C(=O)N[C@@H](CCSC)C(=O)N[C@@H](Cc1ccc(O)cc1)C(=O)N[C@@H](CCCCN)C(=O)N[C@H](C(=O)N1CCC[C@H]1C(=O)N[C@@H](CC(C)C)C(=O)N[C@H](C(=O)N[C@@H](CCCN=C(N)N)C(=O)N[C@@H](CCCCN)C(=O)N[C@@H](CCCCN)C(=O)N[C@@H](CO)C(=O)N[C@@H](CC(C)C)C(=O)N[C@@H](CCCN=C(N)N)C(=O)N[C@@H](CCCN=C(N)N)C(=O)N[C@H](C(=O)N[C@@H](CC(C)C)C(=O)N[C@@H](CO)C(=O)N[C@@H](CCC(=O)O)C(=O)N[C@@H](CCCN=C(N)N)C(=O)NCC(=O)N[C@@H](CC(C)C)C(=O)N[C@@H](CC(C)C)C(=O)N[C@@H](CCCCN)C(=O)N[C@@H](CC(=O)O)C(=O)O)[C@@H](C)O)[C@@H](C)CC)C(C)C [PIMYKVPLIRKKSLRRTLSERGLLKD]
MIC [31]: 12.5 µM (≈ 38.9 µg/mL)
MIC [32]: > 12.5 µM
MIC [33]: 25 µM (≈ 77.8 µg/mL)
MIC [11]: 25 µM (≈ 77.8 µg/mL)
MIC [34]: 25 µM (≈ 77.8 µg/mL)
MIC [4]: 50 µM (≈ 156 µg/mL)
MIC [35]: ≥ 50 µM
MIC [36]: ≥ 50 µM

CC[C@H](C)[C@H](NC(=O)[C@@H](N)CO)C(=O)NCC(=O)N[C@@H](CO)C(=O)N[C@@H](C)C(=O)N[C@@H](Cc1ccccc1)C(=O)N[C@@H](CCCCN)C(=O)N[C@@H](CCCCN)C(=O)N[C@@H](C)C(=O)N[C@@H](C)C(=O)N[C@@H](Cc1cnc[nH]1)C(=O)N[C@H](C(=O)NCC(=O)N[C@@H](CCCCN)C(=O)N[C@@H](Cc1cnc[nH]1)C(=O)N[C@H](C(=O)NCC(=O)N[C@@H](CCCCN)C(=O)N[C@@H](C)C(=O)N[C@@H](C)C(=O)N[C@@H](CC(C)C)C(=O)N[C@H](C(=O)N[C@@H](Cc1cnc[nH]1)C(=O)N[C@@H](Cc1ccc(O)cc1)C(=O)N[C@@H](CC(C)C)C(=O)N[C@@H](CC(N)=O)C(=O)O)[C@@H](C)O)C(C)C)C(C)C [SIGSAFKKAAHVGKHVGKAALTHYLN]
MIC [37]: 23.7 µM (≈ 64 µg/mL)
MIC [38]: 0.739 µM (≈ 2 µg/mL)
MIC [39]: 2.96 µM (≈ 8 µg/mL)
MIC [40]: 23.7 µM (≈ 64 µg/mL)
MIC [41]: 23.7 µM (≈ 64 µg/mL)
MIC [42]: 23.7 µM (≈ 64 µg/mL)
MIC [43]: 23.7 µM (≈ 64 µg/mL)

Reference: DBAASP
